Source: ChEMBL document CHEMBL1129817, “Novel water-soluble analogues retaining potent antitumor activity of RA-VII, a cyclic hexapeptide from Rubia plants” (Bioorg Med Chem Lett, 1997)
Values after ≈ are worked out from the molar mass of the structure shown. Values joined by “and” are separate entries in the source; they are usually repeats but may differ in a detail not shown here. Identical values can stand only once.

Key:
Colon 26 [1] = experiment: Compound was evaluated for percent tumor volume against colon 26 cells in mice (T) at a dose of 0.8 mg/kg intravenous administration after 10 days ot that of control (C); assay type: functional, Mus musculus
B16 [2] = experiment: Compound was evaluated for percent tumor volume against B16 melanoma in mice (T) at 3.13 mg/kg intravenous administration after 11 days ot that of control (C); assay type: functional, Mus musculus
Colon 26 [3] = experiment: Compound was evaluated for percent tumor volume against colon 26 cells in mice (T) at a dose of 1.6 mg/kg intravenous administration after 12 days ot that of control (C); assay type: functional, Mus musculus
B16 [4] = experiment: Compound was evaluated for percent tumor volume against B16 melanoma in mice (T) at 1.6 mg/kg intravenous administration after 11 days ot that of control (C); assay type: functional, Mus musculus
Colon 26 [5] = experiment: Compound was evaluated for percent tumor volume against colon 26 cells in mice (T) at a dose of 3.13 mg/kg intravenous administration after 10 days ot that of control (C); assay type: functional, Mus musculus
P388 [6] = experiment: Percentage of the median survival time of P388 leukemic mice (T) at intraperitoneal administration of 6.25 mg/kg dose to that of controls (C); assay type: functional, Mus musculus
Colon 26 [7] = experiment: Compound was evaluated for percent tumor volume against colon 26 cells in mice (T) at a dose of 0.8 mg/kg intravenous administration after 8 days ot that of control (C); assay type: functional, Mus musculus
Colon 26 [8] = experiment: Compound was evaluated for percent tumor volume against colon 26 cells in mice (T) at a dose of 3.13 mg/kg intravenous administration after 8 days ot that of control (C); assay type: functional, Mus musculus
B16 [9] = experiment: Compound was evaluated for percent tumor volume against B16 melanoma in mice (T) at 1.6 mg/kg intravenous administration after 13 days ot that of control (C); assay type: functional, Mus musculus
Colon 26 [10] = experiment: Compound was evaluated for percent tumor volume against colon 26 cells in mice (T) at a dose of 1.6 mg/kg intravenous administration after 8 days ot that of control (C); assay type: functional, Mus musculus
Colon 26 [11] = experiment: Compound was evaluated for percent tumor volume against colon 26 cells in mice (T) at a dose of 0.8 mg/kg intravenous administration after 12 days ot that of control (C); assay type: functional, Mus musculus
B16 [12] = experiment: Compound was evaluated for percent tumor volume against B16 melanoma in mice (T) at 1.6 mg/kg intravenous administration after 8 days ot that of control (C); assay type: functional, Mus musculus
Colon 26 [13] = experiment: Compound was evaluated for percent tumor volume against colon 26 cells in mice (T) at a dose of 1.6 mg/kg intravenous administration after 10 days ot that of control (C); assay type: functional, Mus musculus
P388 [14] = experiment: Percentage of the median survival time of P388 leukemic mice (T) at intraperitoneal administration of 0.4 mg/kg dose to that of controls (C); assay type: functional, Mus musculus
B16 [15] = experiment: Compound was evaluated for percent tumor volume against B16 melanoma in mice (T) at 3.13 mg/kg intravenous administration after 8 days ot that of control (C); assay type: functional, Mus musculus
Colon 26 [16] = experiment: Compound was evaluated for percent tumor volume against colon 26 cells in mice (T) at a dose of 3.13 mg/kg intravenous administration after 12 days ot that of control (C); assay type: functional, Mus musculus
P388 [17] = experiment: Percentage of the median survival time of P388 leukemic mice (T) at intraperitoneal administration of 1.6 mg/kg dose to that of controls (C); assay type: functional, Mus musculus
KB = experiment: Compound was evaluated for cytotoxicity against human epidermoid carcinoma of nasopharynx (KB) cells; assay type: functional, cell-based
L1210 = experiment: Compound was evaluated for cytotoxicity against L1210 leukemia cells; assay type: functional, cell-based; details: Mus musculus
[18] = test system: KATO III stomach cancer cell line; experiment: Compound was evaluated for cytotoxicity against KATO-III gastric carcinoma cells; assay type: functional, cell-based; details: Homo sapiens
P388 [19] = experiment: Percentage of the median survival time of P388 leukemic mice (T) at intraperitoneal administration of 3.13 mg/kg dose to that of controls (C); assay type: functional, Mus musculus
Colon 26 [20] = experiment: Compound was evaluated for percent tumor volume against colon 26 cells in mice (T) at a dose of 6.25 mg/kg intravenous administration after 10 days ot that of control (C); assay type: functional, Mus musculus
Colon 26 [21] = experiment: Compound was evaluated for percent tumor volume against colon 26 cells in mice (T) at a dose of 6.25 mg/kg intravenous administration after 12 days ot that of control (C); assay type: functional, Mus musculus
P388 [22] = experiment: Percentage of the median survival time of P388 leukemic mice (T) at intraperitoneal administration of 0.8 mg/kg dose to that of controls (C); assay type: functional, Mus musculus
Colon 26 [23] = experiment: Compound was evaluated for percent tumor volume against colon 26 cells in mice (T) at a dose of 6.25 mg/kg intravenous administration after 8 days ot that of control (C); assay type: functional, Mus musculus
B16 [24] = experiment: Compound was evaluated for percent tumor volume against B16 melanoma in mice (T) at 3.13 mg/kg intravenous administration after 13 days ot that of control (C); assay type: functional, Mus musculus

COc1ccc(C[C@H]2C(=O)N[C@@H](C)C(=O)N(C)[C@H]3Cc4cccc(c4)Oc4cc(ccc4OCCN(C(C)C)C(C)C)C[C@@H](C(=O)N[C@H](C)C(=O)N[C@@H](C)C(=O)N2C)N(C)C3=O)cc1
T/C (Colon 26 [1]): 83.4% | T/C (B16 [2]): 32.1% | T/C (Colon 26 [3]): 143.1% | T/C (B16 [4]): 43.3% | T/C (Colon 26 [5]): 38.5% | T/C (P388 [6]): 170% | T/C (Colon 26 [7]): 42.1% | T/C (Colon 26 [8]): 34.5% | T/C (B16 [9]): 69.7% | T/C (Colon 26 [10]): 41.5% | T/C (Colon 26 [11]): 136.3% | T/C (B16 [12]): 55.9% | T/C (Colon 26 [13]): 57.1% | T/C (P388 [14]): 151% | T/C (B16 [15]; 3.13 mg/kg): 57.5% and 32.1% | T/C (Colon 26 [16]): 99.6% | T/C (P388 [17]): 157%

COc1ccc(C[C@H]2C(=O)N[C@@H](C)C(=O)N(C)[C@H]3Cc4cccc(c4)Oc4cc(ccc4OCCN4CCCCCC4)C[C@@H](C(=O)N[C@H](C)C(=O)N[C@@H](C)C(=O)N2C)N(C)C3=O)cc1
T/C (P388 [6]): 137% | T/C (P388 [14]): 112% | T/C (P388 [17]): 123%

COc1ccc(C[C@H]2C(=O)N[C@@H](C)C(=O)N(C)[C@H]3Cc4cccc(c4)Oc4cc(ccc4OC)C[C@@H](C(=O)N[C@H](C)C(=O)N[C@@H](C)C(=O)N2C)N(C)C3=O)cc1 [listing 1 of 2 here]
IC50 (KB): 2.3 ng/mL (≈ 0.00298 µM) | IC50 (L1210): 1.2 ng/mL (≈ 0.00156 µM) | IC50 [18]: 2.9 ng/mL (≈ 0.00376 µM)

COc1ccc(C[C@H]2C(=O)N[C@@H](C)C(=O)N(C)[C@H]3Cc4cccc(c4)Oc4cc(ccc4OCCN4CCCCC4)C[C@@H](C(=O)N[C@H](C)C(=O)N[C@@H](C)C(=O)N2C)N(C)C3=O)cc1
IC50 (KB): 8.7 ng/mL (≈ 0.01 µM)

COc1ccc(C[C@H]2C(=O)N[C@@H](C)C(=O)N(C)[C@H]3Cc4cccc(c4)Oc4cc(ccc4OCCN(C)C)C[C@@H](C(=O)N[C@H](C)C(=O)N[C@@H](C)C(=O)N2C)N(C)C3=O)cc1
IC50 (KB): 25 ng/mL (≈ 0.0302 µM) | IC50 (L1210): 18 ng/mL (≈ 0.0217 µM) | IC50 [18]: 79 ng/mL (≈ 0.0954 µM)

CCN(CCOc1ccc2cc1Oc1cccc(c1)C[C@H]1C(=O)N(C)[C@@H](C2)C(=O)N[C@H](C)C(=O)N[C@@H](C)C(=O)N(C)[C@@H](Cc2ccc(OC)cc2)C(=O)N[C@@H](C)C(=O)N1C)c1ccccc1
T/C (P388 [6]): 150% | T/C (P388 [14]): 116% | T/C (P388 [17]): 133%

COc1ccc(C[C@H]2C(=O)N[C@@H](C)C(=O)N(C)[C@H]3Cc4cccc(c4)Oc4cc(ccc4OCCN(Cc4ccccc4)Cc4ccccc4)C[C@@H](C(=O)N[C@H](C)C(=O)N[C@@H](C)C(=O)N2C)N(C)C3=O)cc1
Activity (P388 [6]): 134% | Activity (P388 [14]): 105% | Activity (P388 [17]): 119%

CCN(CC)CCOc1ccc2cc1Oc1cccc(c1)C[C@H]1C(=O)N(C)[C@@H](C2)C(=O)N[C@H](C)C(=O)N[C@@H](C)C(=O)N(C)[C@@H](Cc2ccc(OC)cc2)C(=O)N[C@@H](C)C(=O)N1C
IC50 (KB): 10 ng/mL (≈ 0.0117 µM)

COc1ccc(C[C@H]2C(=O)N[C@@H](C)C(=O)N(C)[C@H]3Cc4cccc(c4)Oc4cc(ccc4OC)C[C@@H](C(=O)N[C@H](C)C(=O)N[C@@H](C)C(=O)N2C)N(C)C3=O)cc1 [listing 2 of 2 here]
T/C (B16 [2]): 55.5% | T/C (Colon 26 [3]): 88% | T/C (B16 [4]): 62.4% | T/C (Colon 26 [5]): 60.9% | T/C (P388 [19]): 163% | T/C (Colon 26 [20]): 50.3% | T/C (Colon 26 [21]): 78% | T/C (Colon 26 [8]): 48% | T/C (P388 [22]): 144% | T/C (B16 [9]): 85.1% | T/C (Colon 26 [23]): 49% | T/C (Colon 26 [10]): 55.8% | T/C (B16 [12]): 65.8% | T/C (Colon 26 [13]): 72.8% | T/C (B16 [24]): 49.9% | T/C (P388 [14]): 144% | T/C (B16 [15]): 60% | T/C (Colon 26 [16]): 85.6% | T/C (P388 [17]): 152%

COc1ccc(C[C@H]2C(=O)N[C@@H](C)C(=O)N(C)[C@H]3Cc4cccc(c4)Oc4cc(ccc4OCCN4CCCC4)C[C@@H](C(=O)N[C@H](C)C(=O)N[C@@H](C)C(=O)N2C)N(C)C3=O)cc1
T/C (P388 [6]): 134% | T/C (P388 [14]): 112% | T/C (P388 [17]): 124%
